Measured values reported in US12364686B2, “Sphingosine 1 phosphate receptor modulators” (RECEPTOS LLC, priority 2020, dated 2025).
Read-outs that look alike come from different tables or passages of the source.

Key:
[1] = biological target: S1P1 (Homo sapiens, UniProt P21453); test: [35S]-GTPγS binding assay, S1P1; assay type: biochemical; details: for Emax: control S1P, read-out: S1P1 % Efficacy
Experimental: (§1) Cell Membrane Preparations
(§2) CHO cells expressing recombinant S1P receptors were cultured 500 cm^2 culture trays and once confluent, rinsed and detached with cell-lifting buffer (10 mM HEPES, 154 mM NaCl, 6.85 mM EDTA, pH 7.4). Cells were then pelleted by centrifugation, resuspended, and homogenized in membrane preparation buffer (10 mM HEPES and 10 mM EDTA, pH 7.4) using a Polytron PT 1200E homogenizer (Kinematica, Luzern, Switzerland). Cellular proteins were pelleted by centrifugation at 48,000×g at 4° C. for 30 minutes. The resulting supernatant was discarded, and the pellet was re-suspended again in membrane preparation buffer, homogenized for a second time and then centrifuged again as described above. The final cellular protein pellet was suspended in ice cold resuspension buffer (10 mM HEPES and 0.1 mM EDTA, pH 7.4), divided into aliquots, and stored at −80° C. until use.
(§3) Binding assays for [^35S]-GTPγS were performed in 96-well non-binding surface plates with a final volume of 200 μL. The test compounds were serial diluted in DMSO and added to assay plates using a Tecan D300E digital printer with a total volume of 0.4 μL. The control sphingosine-1-phosphate (S1P) was prepared separately by preparing a 400 μM stock solution from a 100 nmol pellet of S1P in 10 mM Na2CO3 with 2% β-cyclodextrin. The serial dilution of S1P was done using complete assay buffer (20 mM HEPES, 10 mM MgCl2, 100 mM NaCl, 1 mM EDTA, 0.1% fatty acid free bovine serum albumin [BSA], and 30 μg/mL saponin, pH7.4) and transferred to wells already containing 0.4 μL DMSO. All the wells were then loaded to a total volume of 40 μL of complete assay buffer, except the non-specific binding (NSB) wells. For NSB wells, 40 µL/well of 50 μM GTPγS (Sigma Aldrich, cat #G8634, St. Louis, MO) was added to wells containing 0.4 μL of DMSO. The assay was started by the addition of 120 μL/well of CHO—S1P receptor membrane solution containing 40 μg/mL of membrane protein, 16.67 μM guanosine diphosphate (GDP; Sigma Aldrich, cat #G7127, St. Louis, MO), and 2.5 mg/mL of WGA PVT SPA beads in complete buffer. Assay plates were then sealed and incubated at room temperature with gentle agitation for 30 minutes. Next, 40 μL/well of 1 nM of [^35S]-GTPγS (PerkinElmer, cat #NEG030X250UC, Waltham, MA) in basic assay buffer (20 mM HEPES, 10 mM MgCl2, 100 mM NaCl, and 1 mM EDTA, pH7.4) was added to the assay plates to yield a final concentration of […] and the plates were further incubated for 40 minutes at room temperature with gentle agitation. The assay was terminated by centrifugation of the plates at 1000 rpm for 3 minutes using an Eppendorf 5810R centrifuge (Eppendorf, Hamburg, Germany) and G protein bound radioactivity was quantitated using a MicroBeta2 microplate scintillation counter (PerkinElmer, Waltham, MA).

[2] = biological target: S1P5 (Homo sapiens, UniProt Q9H228); test: [35S]-GTPγS binding assay, S1P5; assay type: biochemical; details: membranes of CHO cells expressing recombinant S1P receptors; for Emax: control S1P, read-out: S1P5 % Efficacy
Sequence of S1P5 (Q9H228 whole entry, species assumed): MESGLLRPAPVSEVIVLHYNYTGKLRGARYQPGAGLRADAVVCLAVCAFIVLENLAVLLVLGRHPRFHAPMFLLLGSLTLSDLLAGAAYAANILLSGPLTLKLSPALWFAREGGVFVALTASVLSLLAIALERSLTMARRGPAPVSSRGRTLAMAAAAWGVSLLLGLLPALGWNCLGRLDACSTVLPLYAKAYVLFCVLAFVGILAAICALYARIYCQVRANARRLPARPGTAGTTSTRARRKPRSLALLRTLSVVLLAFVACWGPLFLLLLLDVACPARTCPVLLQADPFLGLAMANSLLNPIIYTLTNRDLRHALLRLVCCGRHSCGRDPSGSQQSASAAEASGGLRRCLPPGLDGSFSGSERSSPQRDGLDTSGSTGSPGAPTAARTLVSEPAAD
Experimental: as §1, §2, §3

[3] = membranes of CHO cells expressing recombinant S1P receptors, [35S]-GTPγS binding
[4] = membranes of CHO cells expressing recombinant S1P receptors, [35S]-GTPγS binding, read-out: S1P1 EC50

Sequence of S1P1 (P21453 whole entry, species assumed): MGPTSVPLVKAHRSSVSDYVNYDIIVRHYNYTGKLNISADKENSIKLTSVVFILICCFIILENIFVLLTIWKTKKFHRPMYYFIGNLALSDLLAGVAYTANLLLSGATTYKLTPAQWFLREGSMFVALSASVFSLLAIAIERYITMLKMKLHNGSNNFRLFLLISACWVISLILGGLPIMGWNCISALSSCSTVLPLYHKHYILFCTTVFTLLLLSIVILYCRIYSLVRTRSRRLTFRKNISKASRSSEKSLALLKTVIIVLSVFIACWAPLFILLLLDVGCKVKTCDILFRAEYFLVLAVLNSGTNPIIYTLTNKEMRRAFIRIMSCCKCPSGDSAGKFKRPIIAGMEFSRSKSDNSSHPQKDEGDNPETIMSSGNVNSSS

| Compound | Emax [1, 3] | EC50 [1, 4] | EC50 [2] | Emax [2] | EC50 [1] |
| --- | --- | --- | --- | --- | --- |
| CC(C)Oc1ccc(-c2nc(-c3cccc4c3CCC4=NOCCC(=O)O)no2)cc1C#N (stereo in doubt) [Compound 7, (E)-3-(((4-(5-(3-cyano-4-isopropoxyphenyl)-1,2,4-oxadiazol-3-yl)-2,3-dihydro-1H-inden-1-ylidene)amino)oxy)propanoic acid] | 89% | 336 nM | 30 nM | 29% |  |
| CC(C)Oc1ccc(-c2nc(-c3cccc4c3CC/C4=N/OC(C)(C)C)no2)cc1C#N [Compound 5, (Z)-5-(3-(1-(tert-butoxyimino)-2,3-dihydro-1H-inden-4-yl)-1,2,4-oxadiazol-5-yl)-2-isopropoxybenzonitrile] | 98% | 20 nM | 78 nM | 79% |  |
| CC(C)Oc1ccc(-c2nc(-c3cccc4c3CC/C4=N/OCC(=O)O)no2)cc1C#N [Compound 6, (Z)-2-(((4-(5-(3-cyano-4-isopropoxyphenyl)-1,2,4-oxadiazol-3-yl)-2,3-dihydro-1H-inden-1-ylidene)amino)oxy)acetic acid] | 90% |  | > 2000 nM |  | 19 nM |
| CC(C)Oc1ccc(-c2nc(-c3cccc4c3CC/C4=N/OCCN(C)C)no2)cc1C#N [Compound 8] | 90% | 8 nM | 15 nM | 64% |  |
| CC(C)Oc1ccc(-c2nc(-c3cccc4c3CC/C4=N/O)no2)cc1C#N [Compound 10, (Z)-5-(3-(1-(hydroxyimino)-2,3-dihydro-1H-inden-4-yl)-1,2,4-oxadiazol-5-yl)-2-isopropoxybenzonitrile] | 97% | 4 nM | 6 nM | 58% |  |
| CC(C)Oc1ccc(-c2nc(-c3cccc4c3CC/C4=N/OCCCC(=O)O)no2)cc1C#N [Compound 11, (Z)-4-(((4-(5-(3-cyano-4-isopropoxyphenyl)-1,2,4-oxadiazol-3-yl)-2,3-dihydro-1H-inden-1-ylidene)amino)oxy)butanoic acid] | 85% | 6 nM | 80 nM | 85% |  |
